From patent publication US7947726B2, “Non-steroidal ligands for the glucocorticoid receptor, and compositions thereof” (The Regents of the University of California, priority 2002, dated 2011) come the findings set out here.

The target of test [1] is T1, GR (Rattus norvegicus, UniProt P06536).
T1 construct: expressed in transfected cells; gift of Keith Yamamoto
T1 sequence (P06536 1-795): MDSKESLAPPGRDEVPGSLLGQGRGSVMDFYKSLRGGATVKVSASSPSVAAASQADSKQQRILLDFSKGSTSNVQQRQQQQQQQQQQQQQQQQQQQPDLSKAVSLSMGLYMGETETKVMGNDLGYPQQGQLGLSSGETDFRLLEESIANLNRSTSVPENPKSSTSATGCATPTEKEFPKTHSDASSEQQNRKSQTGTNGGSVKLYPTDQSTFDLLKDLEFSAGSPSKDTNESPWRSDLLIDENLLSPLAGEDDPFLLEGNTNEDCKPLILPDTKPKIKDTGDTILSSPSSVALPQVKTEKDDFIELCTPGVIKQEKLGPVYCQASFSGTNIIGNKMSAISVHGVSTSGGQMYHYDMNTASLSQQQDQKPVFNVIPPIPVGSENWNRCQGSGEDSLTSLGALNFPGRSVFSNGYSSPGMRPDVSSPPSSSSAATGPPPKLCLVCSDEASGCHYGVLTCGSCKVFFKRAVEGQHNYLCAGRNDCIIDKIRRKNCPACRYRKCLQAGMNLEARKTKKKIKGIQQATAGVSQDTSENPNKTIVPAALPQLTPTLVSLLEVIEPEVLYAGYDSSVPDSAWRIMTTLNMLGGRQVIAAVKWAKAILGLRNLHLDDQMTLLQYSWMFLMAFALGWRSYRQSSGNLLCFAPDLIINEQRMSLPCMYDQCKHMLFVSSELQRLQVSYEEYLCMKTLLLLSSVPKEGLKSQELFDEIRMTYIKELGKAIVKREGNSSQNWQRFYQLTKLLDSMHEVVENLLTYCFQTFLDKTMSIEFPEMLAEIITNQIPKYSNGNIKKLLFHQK
Put plainly: AP-1 repression luciferase assay in U2OS cells stably transfected with rat GR. Particulars: Table 5, TPA-stimulated U2OS cells; for EC50: read-out: Repression AP-1 pot (EC50); for Emax: U2OS, 12 h, read-out: Repression AP-1 % max repression. The format is cell-based. The protocol: For API repression assays, U2OS cells stably transfected with rat GR were grown in similar media as for CV-1 cells with the exception of the FBS concentration, which was 10% and the only antibiotic was […]. Cells were plated and transfected in a similar fashion, except for plasmids, which in this case were 50 ng/well AP1-Luc and 10 ng/well β-galactosidase. Post-transfection, cells were incubated with either 50 ng/mL TPA (Phorbol 12-myristate 13-acetate), or 50 ng/mL TPA and various hormone dilutions in 10% charcoal treated FBS media. The cells were incubated for 12 h, and the lysis, β-galactosidase assay, and luciferase assay were performed as previously described.

Test [2] concerns the target T2, GR (Homo sapiens, UniProt P04150).
T2 construct: expressed in transfected cells; host or cells: CV-1 cells, transient transfection (plasmid a gift of Keith Yamamoto, UCSF)
T2 sequence (P04150 1-777): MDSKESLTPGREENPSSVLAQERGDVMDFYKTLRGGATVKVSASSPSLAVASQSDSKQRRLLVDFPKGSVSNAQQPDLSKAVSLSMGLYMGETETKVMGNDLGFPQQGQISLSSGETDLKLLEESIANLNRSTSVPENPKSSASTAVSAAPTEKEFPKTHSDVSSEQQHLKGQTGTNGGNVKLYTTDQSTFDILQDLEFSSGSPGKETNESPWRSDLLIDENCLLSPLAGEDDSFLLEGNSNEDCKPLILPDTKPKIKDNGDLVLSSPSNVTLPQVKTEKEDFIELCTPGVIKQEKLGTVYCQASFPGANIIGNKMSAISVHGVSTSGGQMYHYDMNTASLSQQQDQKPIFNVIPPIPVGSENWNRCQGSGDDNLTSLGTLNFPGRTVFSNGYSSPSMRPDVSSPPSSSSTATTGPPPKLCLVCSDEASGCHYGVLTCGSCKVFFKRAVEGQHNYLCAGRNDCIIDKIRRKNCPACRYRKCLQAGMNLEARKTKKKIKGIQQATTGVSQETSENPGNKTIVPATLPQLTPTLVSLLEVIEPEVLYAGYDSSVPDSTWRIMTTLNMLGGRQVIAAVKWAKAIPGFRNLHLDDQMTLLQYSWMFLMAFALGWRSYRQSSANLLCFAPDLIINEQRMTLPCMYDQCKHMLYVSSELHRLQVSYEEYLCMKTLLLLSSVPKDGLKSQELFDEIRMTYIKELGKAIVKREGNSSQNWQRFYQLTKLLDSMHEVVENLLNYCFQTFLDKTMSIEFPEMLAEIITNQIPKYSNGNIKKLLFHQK
Put plainly: GRE (TAT3-Luc) activation luciferase assay in CV-1 cells transfected with GR. The format is cell-based. The protocol: Cells were plated into tissue culture treated, 96 well flat bottom plates (25,000 cells/well), and incubated for 12 h at 37° C. Cells were then transfected using the Lipofectamine PLUS transfection reagent (Gibco BRL). DNA-lipid complexes of 5 ng GR, 50 ng TAT3-Luc, 7.5 ng β-galactosidase, 1 μL-well PLUS reagent and 0.67 μL-well lipofectamine in 50 μL/well serum free media were added to cells and incubated for 4 h at 37° C. Complexes were removed and hormones diluted in 5% charcoal-stripped FBS were added to the cells, which were then incubated for 24 hours at 37° C. Media was removed and the cells were washed with 100 μL Ca^+2, Mg^+2 free phosphate buffered saline (PBS). Lysis was achieved by adding 50 μL of Passive Lysis Buffer (Promega Corp, Madison, Wis.) and shaking the plate for 15 min. 15 μL of this lysate was then used to assay β-galactosidase activity (β-galactosidase enzyme assay system, Promega Corp., recommended procedures followed). The Luciferase Assay System (Promega Corp.) was used to assay luciferase activity. 100 μL of luciferase assay reagent was added rapidly to the plate and luminescence was measured for 10 ms/well on an Analyst AD Detection System (LJL Biosystems, Sunnyvale, Calif.).

[3] abbreviates: Table 4, read-out: GR pot (EC50).

Each structure is given as a SMILES string. Several values for one entry are separate records, joined by “and”; a condition that tells them apart may be missing. Equal values may be shown once. Read-outs that look alike come from different tables or passages of the source.

In the case of `CC12Cc3cnn(-c4ccc(F)cc4)c3C=C1CCCC2C(O)c1ccsc1` (stereo not shown) [Compound 238, [1-(4-Fluoro-phenyl)-4a-methyl-4,4a-5,6,7,8-hexahydro-1H-benzo[f]indazol-5-yl]-thiophen-3-yl-methanol], at GR [1], the EC50 (commonly the concentration giving half of the maximal effect) was 19.1 nM and 14.7 nM; the Emax was determined as 75%. At GR [2] (Table 4), the “GRE activation max fold activation” value was 86 ± 4 and 112 ± 75. For the same compound, the EC50 at GR [2] (setting [3]) was 251 nM and 230 nM.
`Cc1cc(O)cc(C)c1C(O)C1CCCC2=Cc3c(cnn3-c3ccc(F)cc3)CC21C` (stereo not shown) [Compound 227, 4-{[1-(4-Fluoro-phenyl)-4a-methyl-4,4a,5,6,7,8-hexahydro-1H-benzo[f]indazol-5-yl]-hydroxy-methyl}-3,5-dimethyl-phenol]: the EC50 on GR [1] turned out to be 6 nM; on GR [2] (Table 1, read-out: GR pot(EC50)), 125 nM; on GR [2] (setting [3]), 130 ± 43 nM. In addition, the Emax at GR [1] was found to be 77%. Also, the “GRE activation max fold activation” value on GR [2] (Table 4) turned out to be 95 ± 23.
For the compound `CC12Cc3cnn(-c4ccc(F)cc4)c3C=C1CCCC2C(O)c1cccc2[nH]ccc12` (stereo not shown) [Compound 237, [1-(4-Fluoro-phenyl)-4a-methyl-4,4a,5,6,7,8-hexahydro-1H-benzo[f]indazol-5-yl]-(1H-indol-4-yl)-methanol], on GR [1], the EC50 is 4.9 nM and the Emax was determined as 80%. For the same compound, the “GRE activation max fold activation” value on GR [2] (Table 4) worked out at 92 ± 18. Besides, at GR [2] (setting [3]), the EC50 was 149 ± 91 nM.
